PubChem BioAssay (NCI)
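96-well plates; 48 h exposure; 5 concentrations. Endpoints by linear interpolation between flanking doses. Not reached: highest tested concentration assigned. TGI is the concentration that stops growth completely.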

Legend:
Assay in all cases: NCI tumour cell line growth inhibition, 48 h
MCF7 breast = tested on: MCF7 breast
UO-31 renal = tested on: UO-31 renal
DU-145 prostate = tested on: DU-145 prostate
COLO 205 colon = tested on: COLO 205 colon
SK-MEL-2 melanoma = tested on: SK-MEL-2 melanoma
KM12 colon = tested on: KM12 colon
K-562 leukemia = tested on: K-562 leukemia
OVCAR-4 ovarian = tested on: OVCAR-4 ovarian
M14 melanoma = tested on: M14 melanoma
RXF 393 renal = tested on: RXF 393 renal
SF-295 CNS = tested on: SF-295 CNS
SK-MEL-5 melanoma = tested on: SK-MEL-5 melanoma
BT-549 breast = tested on: BT-549 breast
HT29 colon = tested on: HT29 colon
TK-10 renal = tested on: TK-10 renal
EKVX NSCLC = tested on: EKVX NSCLC
UACC-62 melanoma = tested on: UACC-62 melanoma
HCT-116 colon = tested on: HCT-116 colon

Compound	TGI (MCF7 breast)	TGI (UO-31 renal)	TGI (DU-145 prostate)	TGI (COLO 205 colon)	TGI (SK-MEL-2 melanoma)	TGI (KM12 colon)	TGI (K-562 leukemia)	TGI (OVCAR-4 ovarian)	TGI (M14 melanoma)	TGI (RXF 393 renal)	TGI (SF-295 CNS)	TGI (SK-MEL-5 melanoma)	TGI (BT-549 breast)	TGI (HT29 colon)	TGI (TK-10 renal)	TGI (EKVX NSCLC)	TGI (UACC-62 melanoma)	TGI (HCT-116 colon)
COc1ccc(C[C@@H](CO)NC2=C(C#N)CCC2)cc1	> 100 µM	> 100 µM	> 100 µM	> 100 µM	> 100 µM	63.5 µM	> 100 µM	> 100 µM	> 100 µM	> 100 µM	> 100 µM	> 100 µM	> 100 µM	> 100 µM	> 100 µM	> 100 µM	> 100 µM	> 100 µM
CC(C)(C)OC(=O)CN1C(=O)CC1CC(=O)c1ccccc1 (stereo not drawn)	36.1 µM	31.4 µM	34.2 µM	49.6 µM	32.2 µM	44.4 µM	34.2 µM	> 100 µM	30.4 µM	43.5 µM	73.8 µM	33.1 µM	35.5 µM	37.4 µM	93.2 µM	35.7 µM	41.3 µM	49.7 µM
c1ccc(-c2cn3c(nc4ccccc43)c(-c3ccccc3)n2)cc1	> 100 µM	> 65.4 µM	> 100 µM	> 100 µM	> 62.5 µM	> 100 µM	> 100 µM	> 26 µM	> 100 µM	> 54.3 µM	> 71.9 µM	> 100 µM	> 100 µM	> 100 µM	> 93.4 µM	> 100 µM	> 55.6 µM	> 100 µM
CO/C(N)=C(\C#N)N=Cc1ccco1	> 100 µM	> 100 µM	> 100 µM	> 100 µM	> 100 µM	> 100 µM	> 100 µM	> 100 µM	> 100 µM	> 100 µM	> 100 µM	> 100 µM	> 100 µM	> 100 µM	> 100 µM	> 100 µM	> 100 µM	> 100 µM
CCOC(=O)C1(Cc2ccccc2)C=CN(C(=O)c2ccccc2)C=C1	> 100 µM	> 100 µM	> 100 µM	37.5 µM	49.6 µM	> 100 µM	> 100 µM	> 100 µM	> 100 µM	> 100 µM	> 100 µM	29.8 µM	> 100 µM	> 100 µM	88.3 µM	> 100 µM	72.9 µM	> 100 µM
CC1(C)C2CCC(CN)(C2)C1N (stereo not drawn)	> 100 µM	> 100 µM	> 100 µM	> 100 µM	> 100 µM	> 100 µM	> 100 µM	> 100 µM	> 100 µM	> 100 µM	> 100 µM	> 100 µM	> 100 µM	> 100 µM	> 100 µM	> 100 µM	> 100 µM	> 100 µM
O=c1[nH]nc(-c2ccccc2)n1/N=C/c1ccc([N+](=O)[O-])cc1	> 100 µM	> 38.1 µM	> 100 µM	> 100 µM	67.3 µM	> 100 µM	> 100 µM	> 100 µM	> 100 µM	28.1 µM	> 77.7 µM	> 100 µM	> 100 µM	> 100 µM	55 µM	> 100 µM	> 100 µM	> 100 µM
COc1ccc2c(c1)-c1nc(=S)n(CCCN(C)C)c3ccc([N+](=O)[O-])c(c13)N2	3.01 µM	1.82 µM	17.9 µM	17.6 µM	31.6 µM	6.31 µM	3.04 µM	2.52 µM	22.1 µM	1.87 µM	21.2 µM	10.1 µM	21.7 µM	1.95 µM	17.1 µM	14.5 µM	25.9 µM	2.93 µM
COc1cc2ncnc(Nc3cccc(Cl)c3)c2cc1OC	72.2 µM	44 µM	38.3 µM	> 70.5 µM	30 µM	28.8 µM	47.3 µM	75.8 µM	25.4 µM	26.8 µM	42.4 µM	17.4 µM	13.7 µM	34.9 µM	3.61 µM	15.7 µM	22 µM	46.2 µM
COc1nc(N=P(c2ccccc2)(c2ccccc2)c2ccccc2)cc(=O)[nH]1	> 100 µM	> 100 µM	> 100 µM	> 100 µM	> 100 µM	> 100 µM	> 100 µM	> 100 µM	> 100 µM	> 100 µM	> 100 µM	> 100 µM	> 100 µM	> 100 µM	> 100 µM	> 100 µM	> 100 µM	> 100 µM
COC(=O)C1=C(O)C(C(=O)OC)[C@]2(O)[C@H](C(=O)OC)[C@H]1C[C@@H](c1ccc(OC)c(OC)c1)[C@H]2C(=O)OC (stereo partly drawn)	> 100 µM	> 100 µM	93.8 µM	66.3 µM	99.4 µM	54.5 µM	77.3 µM	> 100 µM	> 100 µM	48.4 µM	94.7 µM	> 100 µM	83.7 µM	> 100 µM	> 100 µM	> 100 µM	> 100 µM	> 100 µM
